This passage reports MIC results from DBAASP.

Some test systems named below: Vibrio alginolyticus; Alternaria sp.; Aspergillus niger; Aspergillus ochraceus; Colletotrichum sp.; Fulvia fulva; Fusarium oxysporum.
What all share (experiment): ≥ marks a high value that may be exact or a test limit, other limits are often not marked, values filed in µg/mL are converted to µM
The subject of test [1] is Staphylococcus aureus BCRC 10780.
Test [2] relates to Staphylococcus sp. BCRC 10451.
In test [3] the test system is Vibrio harveyi BCRC 13812.
Test [4] has as its system Escherichia coli ATCC 35218.
Test [5] deals with Pseudomonas aeruginosa ATCC 27853.
Test [6] concerns Staphylococcus aureus ATCC 25325.
The subject of test [7] is Acinetobacter baumannii ATCC 19606.
Test [8] concerns Acinetobacter baumannii ATCC BAA-1605.
Test [9] relates to Acinetobacter baumannii ATCC BAA-747.
For test [10], the system named is Acinetobacter baumannii NR-17777.
The subject of test [11] is Acinetobacter baumannii NR-17784.
In test [12] the test system is Acinetobacter baumannii NR-9667.
The test system of test [13] is Pseudomonas aeruginosa 1017.
The subject of test [14] is Pseudomonas aeruginosa 1109.
For test [15], the system named is Pseudomonas aeruginosa 1133.
Test [16] concerns Pseudomonas aeruginosa ATCC 10145.
In test [17] the test system is Pseudomonas aeruginosa ATCC 15442.
Test [18] has as its system Pseudomonas aeruginosa ATCC 25619.
The subject of test [19] is Pseudomonas aeruginosa ATCC 35032.
Test [20] concerns Pseudomonas aeruginosa ATCC 9027.
Test [21] deals with Pseudomonas aeruginosa ATCC 9721.
Test [22] relates to Pseudomonas aeruginosa ATCC BAA-1744.
Test [23] concerns Staphylococcus aureus ATCC 43300.
For test [24], the system named is Staphylococcus aureus ATCC 6538.
Test [25] deals with Staphylococcus aureus ATCC BAA-44.
Test [26] relates to Staphylococcus aureus NRS 19.
Test [27] concerns Staphylococcus aureus NRS 1.
Test [28] has as its system Staphylococcus aureus NRS 72.
Test [29] has as its system Staphylococcus aureus NRS 77.
Test [30] has as its system Staphylococcus aureus RN4220.
In test [31] the test system is Staphylococcus aureus USA 100.
For test [32], the system named is Staphylococcus aureus USA 200.
Test [33] relates to Staphylococcus aureus USA 300.
Test [34] deals with Staphylococcus aureus VRSA1.
The test system of test [35] is Staphylococcus aureus VRSA2.
In test [36] the test system is Staphylococcus epidermidis NRS 101.
Test [37] deals with Bacillus anthracis Sterne 34F2.
Test [38] deals with Bacillus subtilis ATCC 9372.
The test system of test [39] is Burkholderia thailandensis.
For test [40], the system named is Neisseria gonorrhoeae F62.
Test [41] has as its system Neisseria gonorrhoeae FA19.
In test [42] the test system is Micrococcus luteus BCRC 11034.
The test system of test [43] is Streptococcus pneumoniae BCRC 10794.

In brackets after ≈: the same amount, converted by molar mass. Where only a bound is given, the exact number is not on record here.

For orientation: MIC means the lowest concentration found to suppress growth. Low values mean a more susceptible organism, high ones a less susceptible organism. With `CC[C@H](C)[C@H](NC(=O)[C@H](Cc1ccccc1)NC(C)=O)C(=O)N[C@@H](Cc1ccccc1)C(=O)N[C@@H](Cc1cnc[nH]1)C(=O)N[C@H](C(=O)N[C@H](C(=O)N[C@@H](CCCCN)C(=O)NCC(=O)N[C@@H](CC(C)C)C(=O)N[C@@H](Cc1ccccc1)C(=O)N[C@@H](Cc1cnc[nH]1)C(=O)N[C@@H](C)C(N)=O)[C@@H](C)CC)[C@@H](C)CC` [FIFHIIKGLFHA], the MIC in test [1] was found to be 4.33 µM (≈ 6.43 µg/mL); in [2], 8.66 µM (≈ 12.9 µg/mL); against Vibrio alginolyticus it was 17.3 µM (≈ 25.7 µg/mL); in test [3] it was 4.33 µM (≈ 6.43 µg/mL).
With `CC(C)C[C@H](NC(=O)[C@H](Cc1ccc(O)cc1)NC(=O)[C@H](Cc1cnc[nH]1)NC(=O)[C@@H](NC(=O)[C@H](CC(C)C)NC(=O)[C@H](C)NC(=O)[C@H](C)NC(=O)[C@H](CCCCN)NC(=O)CNC(=O)[C@@H](NC(=O)[C@H](Cc1cnc[nH]1)NC(=O)[C@@H](N)CCCCN)C(C)C)[C@@H](C)O)C(=O)O` [KHVGKAALTHYL], the MIC against Alternaria sp. is 4.67 µM (≈ 6.25 µg/mL); in the test with Aspergillus niger, 4.67 µM (≈ 6.25 µg/mL); against Aspergillus ochraceus, not below 37.4 µM; against Colletotrichum sp., 2.33 µM (≈ 3.12 µg/mL); in [4], 4 µM (≈ 5.35 µg/mL); in the test with Fulvia fulva, 9.35 µM (≈ 12.5 µg/mL). For the same molecule, the values for the MIC (with Fusarium oxysporum; in [5]; in [6]) were 2.33 µM (≈ 3.12 µg/mL), 9.1 µM (≈ 12.2 µg/mL) and 4.6 µM (≈ 6.15 µg/mL), respectively.
For the molecule `CC[C@H](C)[C@H](NC(=O)[C@H](CCCN=C(N)N)NC(=O)[C@H](CCCN=C(N)N)NC(=O)[C@H](CC(C)C)NC(=O)[C@@H](N)Cc1c[nH]c2ccccc12)C(=O)N[C@@H](CCCCN)C(=O)N[C@@H](C)C(=O)N[C@@H](Cc1c[nH]c2ccccc12)C(=O)N[C@@H](CC(C)C)C(=O)N[C@@H](CCCN=C(N)N)C(=O)N[C@@H](CCCN=C(N)N)C(=O)O` [WLRRIKAWLRR], the MIC in [7] was 16 µM (≈ 24.9 µg/mL); in test [8], not below 32 µM; in [9], not below 64 µM; in test [10], 16 µM (≈ 24.9 µg/mL); in [11] it was not below 64 µM; in test [12], not below 32 µM. Moreover, the MIC in [13] is not below 128 µM; in test [14], not below 128 µM; in test [15], not below 64 µM; in test [16], not below 128 µM; in test [17], not below 128 µM; in test [18], not below 64 µM. Besides, the MIC is 64 µM (≈ 99.5 µg/mL) in test [5]; not below 64 µM in test [19]; 64 µM (≈ 99.5 µg/mL) in test [20]; not below 64 µM in test [21]; not below 128 µM in test [22]; 16 µM (≈ 24.9 µg/mL) in test [23]. The minimum inhibitory concentration (MIC) in [24] was 16 µM (≈ 24.9 µg/mL); in test [25], 16 µM (≈ 24.9 µg/mL); in test [26], 8 µM (≈ 12.4 µg/mL); in test [27] it was 16 µM (≈ 24.9 µg/mL); in test [28], not below 32 µM; in test [29], 16 µM (≈ 24.9 µg/mL). The MIC was 8 µM (≈ 12.4 µg/mL) in test [30]; 16 µM (≈ 24.9 µg/mL) in test [31]; 8 µM (≈ 12.4 µg/mL) in test [32]; 16 µM (≈ 24.9 µg/mL) in test [33]; not below 32 µM in [34]; 16 µM (≈ 24.9 µg/mL) in test [35]. The molecule also gave an MIC in [36] of 8 µM (≈ 12.4 µg/mL).
As for `CC[C@H](C)[C@H](NC(=O)[C@H](Cc1cnc[nH]1)NC(=O)[C@H](CCCCN)NC(=O)[C@@H](NC(=O)[C@@H](NC(=O)[C@H](CC(=O)O)NC(=O)[C@H](Cc1ccccc1)NC(=O)[C@H](Cc1c[nH]c2ccccc12)NC(=O)CN)C(C)C)C(C)C)C(=O)N[C@@H](C)C(=O)N[C@@H](CO)C(=O)N[C@@H](C)C(=O)N[C@H](C(=O)O)C(C)C` [GWFDVVKHIASAV], the minimum inhibitory concentration (MIC) in test [37] is not below 100 µM; in [38] it was not below 100 µM; in test [39], not below 50 µM.
As to `CC(C)[C@H](NC(=O)[C@@H]1CSSC[C@H](N)C(=O)N[C@@H](Cc2ccc(O)cc2)C(=O)N[C@H]2CSSC[C@H](NC(=O)[C@H](Cc3ccccc3)NC(=O)[C@H](CCCNC(=N)N)NC(=O)[C@H](CCCNC(=N)N)NC(=O)[C@H](CCCNC(=N)N)NC2=O)C(=O)N[C@@H](C(C)C)C(=O)N1)C(=O)NCC(=O)N[C@@H](CCCNC(=N)N)C(N)=O` [CYCRRRFCVCVGR], the MIC in test [40] was found to be 2.7 µM (≈ 4.36 µg/mL); in test [41], 6.56 µM (≈ 10.6 µg/mL).
On to `CC[C@H](C)[C@H](NC(=O)[C@H](CCCCN)NC(=O)[C@@H]1CCCN1C(=O)[C@@H](NC(=O)[C@H](CC(C)C)NC(=O)[C@H](C)NC(=O)[C@H](Cc1ccccc1)NC(=O)[C@H](Cc1ccccc1)NC(=O)CNC(C)=O)[C@@H](C)CC)C(=O)N[C@H](C(=O)N[C@@H](CO)C(=O)N[C@@H](CO)C(=O)N1CCC[C@H]1C(=O)N[C@@H](CC(C)C)C(=O)N[C@@H](Cc1ccccc1)C(=O)N[C@@H](CCCCN)C(=O)N[C@H](C(=O)N[C@@H](CC(C)C)C(=O)N[C@@H](CC(C)C)C(=O)N[C@@H](CO)C(=O)N[C@@H](C)C(N)=O)[C@@H](C)O)[C@@H](C)CC` [GFFALIPKIISSPLFKTLLSA], for which the MIC in test [42] is not below 44.2 µM; in [1] it was not below 44.2 µM; in test [2], 5.52 µM (≈ 12.7 µg/mL); in test [43], not below 44.2 µM.
